Data reported in patent publication US20240148821A1, “PHARMACEUTICAL USE OF CYCLIC PEPTIDE COMPOUND” (CHUGAI SEIYAKU KABUSHIKI KAISHA, priority 2021, published 2024).
pIC50: −log10 of the molar value. Bridge positions count the residues as written; N and C are the ends. Square brackets hold non-standard residues; d marks the D form. Peptide text beside a SMILES is read from it. * marks the point of attachment. hPhe(3,5-F2-4-CF3) = N[C@@H](CCc1cc(F)c(C(F)(F)F)c(F)c1)C(=O)O; hPhe(3-Cl-4-CF3) = N[C@@H](CCc1ccc(C(F)(F)F)c(Cl)c1)C(=O)O; NEtPhe(4-CF3) = CCN[C@@H](Cc1ccc(C(F)(F)F)cc1)C(=O)O; NMePhe(4-CF3) = CN[C@@H](Cc1ccc(C(F)(F)F)cc1)C(=O)O; 3Oxa8azabicyclo(3.2.1)octane = C1CC2COCC1N2*; NEtPhe(4-Me) = CCN[C@@H](Cc1ccc(C)cc1)C(=O)O; NMeAbu(4,4,4-F3) = CN[C@@H](CC(F)(F)F)C(=O)O; NMePhe(4-Me) = CN[C@@H](Cc1ccc(C)cc1)C(=O)O; NMeGly(cPent) = CN[C@H](C(=O)O)C1CCCC1; Pro(4,4-F2) = O=C(O)[C@@H]1CC(F)(F)CN1; NMeCha = CN[C@@H](CC1CCCCC1)C(=O)O; NMehLeu = CN[C@@H](CCC(C)C)C(=O)O; Hyp = O=C(O)[C@@H]1C[C@@H](O)CN1; NEtLeu = CCN[C@@H](CC(C)C)C(=O)O; NMeChg = CN[C@H](C(=O)O)C1CCCCC1; NMeI = CC[C@H](C)[C@H](NC)C(=O)O; NMeD = CN[C@@H](CC(=O)O)C(=O)O; NMeL = CN[C@@H](CC(C)C)C(=O)O; NMeNva = CCC[C@H](NC)C(=O)O; Morpholide = C1CN(*)CCO1; NMeA = CN[C@@H](C)C(=O)O; Pyrrolidide = C1CCN(*)C1; Ac5c = NC1(C(=O)O)CCCC1; Aze = O=C(O)[C@@H]1CCN1; Ac4c = NC1(C(=O)O)CCC1; Sar = CNCC(=O)O

Legend:
[1] = target: protein-protein interaction between Kras and SOS1 (biotin-tagged human Kras loaded with GDP, His-tagged human SOS1) (Homo sapiens (Human), UniProt P01116, G12D); assay: Protein-protein interaction inhibition between Kras and SOS1 (KrasG12D-SOS PPI) using AlphaScreen; assay type: biochemical; details: AlphaScreen; biotin-tagged human Kras loaded with GDP, His-tagged human SOS1; read-out: KRAS G12D-SOS PPI IC50;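 further: kras produced in E. coli, Ni-coupled donor beads and streptavidin acceptor beads, excitation 680 nm with emission detected at 520–620 nm via singlet oxygen transfer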
[2] = tested on: Human pancreatic cancer cell line AsPC-1 (G12D mutation Kras); assay: AsPC-1 cell growth inhibition (AsPC-1 CGI); assay type: cell-based; details: read-out: AsPC-1 cell growth inhibition, 50% growth inhibitory concentration (IC50 value); 96 hours, CellTiter-Glo, values classified in ranges
Protocol: Test compounds were serially dilated with dimethyl sulfoxide, and 200 nL was then dispensed to a U-bottom 96-well plate using Labcyte Echo. […] The cell suspension was dispensed to a. plate containing a test compound at 100 μL per well and incubated at 37° C. in a 5% carbon dioxide gas incubator. 96 hours later, 80 μL of CellTiter-Glo (Promega) was added to each well and fluorescence was measured.

| Compound | pIC50 [1] | pIC50 [2] |
| --- | --- | --- |
| CC[C@H](C)[C@@H]1NC(=O)[C@H](CC(C)C)N(C)C(=O)C[C@@H](C(=O)N2CCCC2)N(C)C(=O)[C@H]([C@@H](C)CC)N(C)C(=O)C2(CCCC2)NC(=O)[C@@H]2CCCN2C(=O)[C@H](CCc2ccc(C(F)(F)F)c(Cl)c2)NC(=O)CN(C)C(=O)[C@H](Cc2ccc(C)cc2)N(CC)C(=O)[C@@H]2CCN2C(=O)[C@H](C)N(C)C1=O [Compound 1325] ([NMeL]I[NMeA][Aze][NEtPhe(4-Me)][Sar][hPhe(3-Cl-4-CF3)]P[Ac5c][NMeI][NMeD]-Pyrrolidide; lactam N-11) | 9.02 | ≥ 7.70 |
| CCO[C@@H]1C[C@H]2C(=O)NC3(CCCC3)C(=O)N(C)[C@@H]([C@@H](C)CC)C(=O)N(C)[C@H](C(=O)N3CCCC3)CC(=O)N(C)[C@@H](CC(C)C)C(=O)N[C@@H]([C@@H](C)CC)C(=O)N(C)[C@@H](C)C(=O)N3CC[C@H]3C(=O)N(C)[C@@H](Cc3ccc(C(F)(F)F)cc3)C(=O)N(C)CC(=O)N[C@@H](CCc3ccc(C(F)(F)F)c(Cl)c3)C(=O)N2C1 [Compound 1335] ([NMeL]I[NMeA][Aze][NMePhe(4-CF3)][Sar][hPhe(3-Cl-4-CF3)][Hyp](Et)[Ac5c][NMeI][NMeD]-Pyrrolidide; lactam N-11) | 9.31 | ≥ 7.70 |
| CC[C@H](C)[C@@H]1NC(=O)[C@H](CC(C)C)N(C)C(=O)C[C@@H](C(=O)N2CCOCC2)N(C)C(=O)[C@H](C2CCCC2)N(C)C(=O)C2(CCCC2)NC(=O)[C@@H]2CCCN2C(=O)[C@H](CCc2cc(F)c(C(F)(F)F)c(F)c2)NC(=O)CN(C)C(=O)[C@H](C2CCCC2)N(C)C(=O)[C@@H]2CCN2C(=O)[C@H](C)N(C)C1=O [Compound 1336] ([NMeL]I[NMeA][Aze][NMeGly(cPent)][Sar][hPhe(3,5-F2-4-CF3)]P[Ac5c][NMeGly(cPent)][NMeD]-Morpholide; lactam N-11) | 9.18 | ≥ 7.70 |
| CCO[C@@H]1C[C@H]2C(=O)NC3(CCCC3)C(=O)N(C)[C@@H](C3CCCCC3)C(=O)N(C)[C@H](C(=O)N3CCCC3)CC(=O)N(C)[C@@H](CC(F)(F)F)C(=O)N[C@@H]([C@@H](C)CC)C(=O)N(C)CC(=O)N(C)CC(=O)N(C)[C@@H](Cc3ccc(C)cc3)C(=O)N(C)CC(=O)N[C@@H](CCc3ccc(C(F)(F)F)c(Cl)c3)C(=O)N2C1 [Compound 1339] ([NMeAbu(4,4,4-F3)]I[Sar][Sar][NMePhe(4-Me)][Sar][hPhe(3-Cl-4-CF3)][Hyp](Et)[Ac5c][NMeChg][NMeD]-Pyrrolidide; lactam N-11) | 9.24 | ≥ 7.70 |
| CCO[C@@H]1C[C@H]2C(=O)NC3(CCCC3)C(=O)N(C)[C@@H](C3CCCCC3)C(=O)N(C)[C@H](C(=O)N3C4CCC3COC4)CC(=O)N(C)[C@@H](CC(C)C)C(=O)N[C@@H]([C@@H](C)CC)C(=O)N(C)CC(=O)N(C)CC(=O)N(C)[C@@H](CC3CCCCC3)C(=O)N(C)CC(=O)N[C@@H](CCc3cc(F)c(C(F)(F)F)c(F)c3)C(=O)N2C1 [Compound 1341] ([NMeL]I[Sar][Sar][NMeCha][Sar][hPhe(3,5-F2-4-CF3)][Hyp](Et)[Ac5c][NMeChg][NMeD]-{3Oxa8azabicyclo(3.2.1)octane}; lactam N-11) | 9.09 | ≥ 7.70 |
| CC[C@H](C)[C@@H]1NC(=O)[C@H](CC(C)C)N(C)C(=O)C[C@@H](C(=O)N2CCOCC2)N(C)C(=O)[C@H]([C@@H](C)CC)N(C)C(=O)C2(CCCC2)NC(=O)[C@@H]2CC(F)(F)CN2C(=O)[C@H](CCc2cc(F)c(C(F)(F)F)c(F)c2)NC(=O)CN(C)C(=O)[C@H](Cc2ccc(C(F)(F)F)cc2)N(C)C(=O)[C@@H]2CCN2C(=O)[C@H](C)N(C)C1=O [Compound 1348] ([NMeL]I[NMeA][Aze][NMePhe(4-CF3)][Sar][hPhe(3,5-F2-4-CF3)][Pro(4,4-F2)][Ac5c][NMeI][NMeD]-Morpholide; lactam N-11) | 9.21 | ≥ 7.70 |
| CC[C@H](C)[C@@H]1NC(=O)[C@H](CC(C)C)N(C)C(=O)C[C@@H](C(=O)N2CCCC2)N(C)C(=O)[C@H]([C@@H](C)CC)N(C)C(=O)C2(CCCC2)NC(=O)[C@@H]2CCCN2C(=O)[C@H](CCc2cc(F)c(C(F)(F)F)c(F)c2)NC(=O)CN(C)C(=O)[C@H](Cc2ccc(C)cc2)N(CC)C(=O)[C@@H]2CCN2C(=O)[C@H](C)N(C)C1=O [Compound 1351] ([NMeL]I[NMeA][Aze][NEtPhe(4-Me)][Sar][hPhe(3,5-F2-4-CF3)]P[Ac5c][NMeI][NMeD]-Pyrrolidide; lactam N-11) | 9.09 | ≥ 7.70 |
| CC[C@H](C)[C@@H]1NC(=O)[C@H](CCC(C)C)N(C)C(=O)C[C@@H](C(=O)N2CCOCC2)N(C)C(=O)[C@H]([C@@H](C)CC)N(C)C(=O)C2(CCCC2)NC(=O)[C@@H]2CCCN2C(=O)[C@H](CCc2ccc(C(F)(F)F)c(Cl)c2)NC(=O)CN(C)C(=O)[C@H](Cc2ccc(C(F)(F)F)cc2)N(C)C(=O)[C@@H]2CCN2C(=O)[C@H](C)NC1=O [Compound 1356] ([NMehLeu]IA[Aze][NMePhe(4-CF3)][Sar][hPhe(3-Cl-4-CF3)]P[Ac5c][NMeI][NMeD]-Morpholide; lactam N-11) | 8.96 | ≥ 7.70 |
| CC[C@H](C)[C@@H]1NC(=O)[C@H](CC(C)C)N(C)C(=O)C[C@@H](C(=O)N2CCCC2)N(C)C(=O)[C@H]([C@@H](C)CC)N(C)C(=O)C2(CCCC2)NC(=O)[C@@H]2CCCN2C(=O)[C@H](CCc2ccc(C(F)(F)F)c(Cl)c2)NC(=O)CN(C)C(=O)[C@H](Cc2ccc(C(F)(F)F)cc2)N(C)C(=O)[C@@H]2CCN2C(=O)[C@H](C)NC1=O [Compound 1360] ([NMeL]IA[Aze][NMePhe(4-CF3)][Sar][hPhe(3-Cl-4-CF3)]P[Ac5c][NMeI][NMeD]-Pyrrolidide; lactam N-11) | 9.01 | ≥ 7.70 |
| CC[C@H](C)[C@@H]1NC(=O)[C@H](CC(C)C)N(C)C(=O)C[C@@H](C(=O)N2CCOCC2)N(C)C(=O)[C@H]([C@@H](C)CC)N(C)C(=O)C2(CCCC2)NC(=O)[C@@H]2CCCN2C(=O)[C@H](CCc2cc(F)c(C(F)(F)F)c(F)c2)NC(=O)CN(C)C(=O)[C@H](Cc2ccc(C(F)(F)F)cc2)N(C)C(=O)[C@@H]2CCN2C(=O)[C@H](C)N(C)C1=O [Compound 1362] ([NMeL]I[NMeA][Aze][NMePhe(4-CF3)][Sar][hPhe(3,5-F2-4-CF3)]P[Ac5c][NMeI][NMeD]-Morpholide; lactam N-11) | 9.09 | ≥ 7.70 |
| CC[C@H](C)[C@@H]1NC(=O)[C@H](CC(C)C)N(C)C(=O)C[C@@H](C(=O)N2CCOCC2)N(C)C(=O)[C@H]([C@@H](C)CC)N(C)C(=O)C2(CCCC2)NC(=O)[C@@H]2CCCN2C(=O)[C@H](CCc2cc(F)c(C(F)(F)F)c(F)c2)NC(=O)CN(C)C(=O)[C@H](Cc2ccc(C(F)(F)F)cc2)N(CC)C(=O)[C@@H]2CCN2C(=O)[C@H](C)N(C)C1=O [Compound 1364] ([NMeL]I[NMeA][Aze][NEtPhe(4-CF3)][Sar][hPhe(3,5-F2-4-CF3)]P[Ac5c][NMeI][NMeD]-Morpholide; lactam N-11) | 8.92 | ≥ 7.70 |
| CC[C@H](C)[C@@H]1NC(=O)[C@H](CC(C)C)N(CC)C(=O)C[C@@H](C(=O)N(C)C)N(C)C(=O)[C@H]([C@@H](C)CC)N(C)C(=O)C2(CCCC2)NC(=O)[C@@H]2CCCN2C(=O)[C@H](CCc2ccc(C(F)(F)F)c(Cl)c2)NC(=O)CN(C)C(=O)[C@H](Cc2ccc(C)cc2)N(C)C(=O)[C@@H]2CCN2C(=O)[C@H](C)N(C)C1=O [Compound 1365] ([NEtLeu]I[NMeA][Aze][NMePhe(4-Me)][Sar][hPhe(3-Cl-4-CF3)]P[Ac5c][NMeI][NMeD]-NMe2; lactam N-11) | 8.92 | ≥ 7.70 |
| CCO[C@@H]1C[C@H]2C(=O)NC3(CCC3)C(=O)N(C)[C@@H](C3CCCCC3)C(=O)N(C)[C@H](C(=O)N3CCCC3)CC(=O)N(C)[C@@H](CC(C)C)C(=O)N[C@@H]([C@@H](C)CC)C(=O)N(C)CC(=O)N(C)CC(=O)N(C)[C@@H](CC3CCCCC3)C(=O)N(C)CC(=O)N[C@@H](CCc3cc(F)c(C(F)(F)F)c(F)c3)C(=O)N2C1 [Compound 1366] ([NMeL]I[Sar][Sar][NMeCha][Sar][hPhe(3,5-F2-4-CF3)][Hyp](Et)[Ac4c][NMeChg][NMeD]-Pyrrolidide; lactam N-11) | 9.20 | ≥ 7.70 |
| CCC[C@H]1C(=O)N[C@@H]([C@@H](C)CC)C(=O)N(C)CC(=O)N(C)CC(=O)N(C)[C@@H](CC2CCCCC2)C(=O)N(C)CC(=O)N[C@@H](CCc2cc(F)c(C(F)(F)F)c(F)c2)C(=O)N2C[C@H](OCC)C[C@H]2C(=O)NC2(CCCC2)C(=O)N(C)[C@@H](C2CCCCC2)C(=O)N(C)[C@H](C(=O)N2CCCC2)CC(=O)N1C [Compound 1367] ([NMeNva]I[Sar][Sar][NMeCha][Sar][hPhe(3,5-F2-4-CF3)][Hyp](Et)[Ac5c][NMeChg][NMeD]-Pyrrolidide; lactam N-11) | 9.19 | ≥ 7.70 |
| CCO[C@@H]1C[C@H]2C(=O)NC3(CCCC3)C(=O)N(C)[C@@H](C3CCCCC3)C(=O)N(C)[C@H](C(=O)N3CCCC3)CC(=O)N(C)[C@@H](CC(F)(F)F)C(=O)N[C@@H]([C@@H](C)CC)C(=O)N(C)CC(=O)N(C)CC(=O)N(C)[C@@H](CC3CCCCC3)C(=O)N(C)CC(=O)N[C@@H](CCc3ccc(C(F)(F)F)c(Cl)c3)C(=O)N2C1 [Compound 1369] ([NMeAbu(4,4,4-F3)]I[Sar][Sar][NMeCha][Sar][hPhe(3-Cl-4-CF3)][Hyp](Et)[Ac5c][NMeChg][NMeD]-Pyrrolidide; lactam N-11) | 9.26 | ≥ 7.70 |
| CCO[C@@H]1C[C@H]2C(=O)NC3(CCCC3)C(=O)N(C)[C@@H](C3CCCC3)C(=O)N(C)[C@H](C(=O)N3CCCC3)CC(=O)N(C)[C@@H](CC(C)C)C(=O)N[C@@H]([C@@H](C)CC)C(=O)N(C)CC(=O)N(C)CC(=O)N(C)[C@@H](CC3CCCCC3)C(=O)N(C)CC(=O)N[C@@H](CCc3ccc(C(F)(F)F)c(Cl)c3)C(=O)N2C1 [Compound 1370] ([NMeL]I[Sar][Sar][NMeCha][Sar][hPhe(3-Cl-4-CF3)][Hyp](Et)[Ac5c][NMeGly(cPent)][NMeD]-Pyrrolidide; lactam N-11) | 9.22 | ≥ 7.70 |
